Reference: US8518700B2, “Composition for reprogramming somatic cells to generate induced pluripotent stem cells, comprising Bmi1 and low molecular weight substance, and method for generating induced pluripotent stem cells using the same” (Korea University Research and Business Foundation, priority 2010, dated 2013)

Legend:
Format in all cases: cell-based
[1] = test system: Bmi1-transduced mouse somatic cells (Oct4-positive cells); assay: Reprogramming of Oct4-positive Bmi1-transduced mouse somatic cells into iPS cells by treatment with low molecular weight substances; conditions: 0.5 μM PD0325901 and 3 μM CHIR99021 together; culture conditions of mouse embryonic stem cells
Protocol: (§1) Mouse somatic cells, in detail, mouse fibroblasts were employed to generate embryonic stem cell-like cells. Embryos were taken from CF1 strain mice on embryonic day 13.5. Cells were cultured in DMEM (high glucose, w/o sodium pyruvate) supplemented with 10% FBS (Fetal bovine serum), 0.1 mM non-essential amino acid, 1% penicillin/streptomycin and 0.1 mM β-mercaptoethanol in tissue culture flasks, after which fibroblasts at the 3rd passage were seeded at a density of 2×10^5 cells/well into 6-well plates.
(§2) For use in gene transfer, retrovirus particles were prepared from the PT67 packaging cell line. In this context, a pBabe puro Bmi1 (from Dr. G. P. Dimri, Evanston Northwestern Healthcare Research Institute, Feinberg School of Medicine, Northwestern University, Evanston, Ill. 60201, USA), constructed by inserting a human Bmi1 gene (NCBI accession No. L13689) into a pBabe puro vector, was transfected into a PT67 packaging cell line (Clontech) with the aid of Turbofect (Fermentas), followed by drug selection with puromycine (3 μg/ml, BD bioscience). The PT67 packaging cell line allowed the production of high-titer viruses capable of infecting a broad range of mammalian host cells.
(§3) The expression of each gene was monitored with RT-PCR. […]

[2] = test system: Bmi1-transduced mouse somatic cells (neurosphere-like cells); assay: Reprogramming of neurosphere-like cells from Bmi1-transduced mouse somatic cells (EGF-free neural stem cell condition) into iPS cells; conditions: 1 μM BIX01294 and 0.5 μM RG108 together; one week; condition used for mouse embryonic stem cells
Protocol: as §1, §2, §3

[3] = test system: Bmi1-transduced mouse somatic cells (neurosphere-like cells); assay: Reprogramming of neurosphere-like cells from Bmi1-transduced mouse somatic cells (neural stem cell condition with bFGF and EGF) into iPS cells; conditions: 2 mM VPA; one week; condition used for mouse embryonic stem cells
Protocol: as §1, §2, §3

Structure (SMILES) | Reprogramming into iPS cells (BC-iPS 1) [1] | Reprogramming into iPS cells (BC-iPS 2) [2] | further results
Cc1c[nH]c(-c2cnc(NCCNc3ccc(C#N)cn3)nc2-c2ccc(Cl)cc2Cl)n1 [CHIR99021] | establish induced stem cells | – | –
O=C(O)[C@H](Cc1c[nH]c2ccccc12)N1C(=O)c2ccccc2C1=O [RG108, N-Phthalyl-L-tryptophan] | – | establish iPS cells | –
O=C(NOC[C@H](O)CO)c1ccc(F)c(F)c1Nc1ccc(I)cc1F [PD0325901] | establish induced stem cells | – | –
COc1cc2nc(N3CCCN(C)CC3)nc(NC3CCN(Cc4ccccc4)CC3)c2cc1OC [BIX01294, 2-(Hexahydro-4-methyl-1H-1,4-diazepin-1-yl)-6,7-dimethoxy-N-[1-(phenylmethyl)-4-piperidinyl]4-quinazolinamine] | – | establish iPS cells | –
CCCC(CCC)C(=O)O [VPA, 2-propylenepentanoic acid] | – | – | Reprogramming into iPS cells [3]: iPS cells were established
